Results reported in US10787448B2, “Indolizino [3,2-C] quinoline-based fluorescent probe” (SEOUL NATIONAL UNIVERSITY R & DB FOUNDATION, priority 2015, dated 2020).
Several values for one entry are separate records, joined by “and”; a condition that tells them apart may be missing. Equal values may be shown once. Blank lines part the entries; values can stand above or below the compound they belong to.

Experiments:
[1] = Analysis of optical characteristics (absorption, fluorescence emission, quantum yield) in solvents; assay type: physicochemical; conditions: for Fluorescence Emission Intensity / Peak emission wavelength λmax em(nm) / Relative fluorescence Emission Intensitynorm: H2O at 2 μM; for Peak emission wavelength λmax em(nm): excited at the longest absorption maxima; for Relative fluorescence Emission Intensitynorm: normalized fluorescence intensity
Method: Fluorescence emission spectra were obtained at 20° C. using a JASCO FP-6500 spectrofluorometer, a 10 mM stock solution prepared by dissolving an indolizino[3,2-c]quinoline compound in DMSO was diluted in a solvent. […] Absorption spectra were recorded at room temperature using a Perkin Elmer Lamda 20 UV/VIS spectrometer. […]
Further, the compounds (excluding Entry #51-57, etc.) of Formula 1 were subjected to spectrum analyses in various solvents, and the results are shown in Tables 6 and 7, and FIGS. 5C and 5D.

[2] = test system: HeLa cells; test: Cell permeability: fluorescence imaging and live cell confocal imaging; assay type: cell-based; conditions: for detection with yellow and red wavelength filters: live HeLa cells, ex 514 nm, em 519 nm and ex 561 nm, em 566 nm; for intracellular organelles in which fluorescence is detected: HeLa cells; for co-localization with LysoTracker: live-cell confocal imaging, IQ 56 green, IQ 57 blue wavelength
Method: HeLa cells were seeded in a 96-well plate and incubated for 24 hours. The cells were treated with the indolizino[3,2-c]quinoline compounds, and incubated at 37° C. under a 5% CO2 condition for 30 minutes. After removal of the medium, the cells were washed with 1×DPBS. The washed cells were fixed with 4% formaldehyde at room temperature for 10 minutes, and washed with 1×DPBS. A cell image was screened using an Operetta HTS imaging system (PerkinElmer).
After HeLa cells were seeded to account for 70 to 80% of the area of a confocal dish (SPL life science) and overnight cultured, the indolizino[3,2-c]quinoline compounds (10 μM) prepared by mixing fresh DMEM after removal of the existing DMEM medium were dispensed, and the cells were incubated for 30 minutes to 1 hour at 37° C. Afterward, if needed, LysoTracker (50 nM) was mixed with DMEM to remove the existing medium and then dispensed to the cells, and the cells were incubated for 30 minutes at 37° C. After incubation, without washing, the cells were examined by a confocal laser microscope (Leica TCS SP8 SMD, Leica, Mannheim, Germany). However, when co-stained with a LysoTracker, the cells were washed with DPBS twice before the microscopy. […]

λex(nm) ([1]; Table 7): 440 nm
Compound: COc1ccc(-c2nc3ccccc3c3cc4cc(-c5ccc(/C=C/C=O)cc5)ccn4c23)cc1 [IQ-B31, (E)-3-(4-(6-(4-methoxyphenyl)indolizino[3,2-c]quinolin-10-yl)phenyl)acrylaldehyde]
detection with yellow and red wavelength filters [2]: detected

Compound: COc1ccc(-c2nc3ccccc3c3cc4ccccn4c23)cc1CN1CCOCC1 [IQ 56, 4-(5-(indolizino[3,2-c]quinolin-6-yl)-2-methoxybenzyl)morpholine]
intracellular organelles in which fluorescence is detected [2]: intensively distributed in the lysosomal area
co-localization with LysoTracker [2]: co-localized with the commercially available marker LysoTracker

λex(nm) ([1]; Table 7): 432 nm
Compound: COc1ccc(-c2nc3ccccc3c3cc4cc(-c5ccc(N(C)C)cc5)ccn4c23)cc1 [IQ-B37, 4-(6-(4-methoxyphenyl)indolizino[3,2-c]quinolin-10-yl)-N,N-dimethylaniline]
detection with yellow and red wavelength filters [2]: detected

Compound: CCOC(=O)c1c2c3ccccc3nc(-c3ccc(OC)c(CN4CCOCC4)c3)c2n2ccccc12 [IQ 57, ethyl 6-(4-methoxy-3-(morpholinomethyl)phenyl)indolizino[3,2-c]quinoline-12-carboxylate]
intracellular organelles in which fluorescence is detected [2]: intensively distributed in the lysosomal area
co-localization with LysoTracker [2]: co-localized with the commercially available marker LysoTracker

Abs maximum λ for UV [1]: 344 nm
Stokes shift [1]: ≥ 180 nm
Compound: COc1ccc(/C=C/c2nc3ccccc3c3cc4ccccn4c23)cc1 [IQ-B12, (E)-6-(4-methoxystyryl)indolizino[3,2-c]quinoline]

λex(nm) ([1]; Table 6): 403 nm
Compound: CCCCn1cc(-c2c3c4ccccc4nc(-c4ccc(OC)cc4)c3n3ccccc23)nn1 [IQ 6-T, 12-(1-butyl-1H-1,2,3-triazol-4-yl)-6-(4-methoxyphenyl)indolizino[3,2-c]quinoline]

solvent-dependent (environment-sensitive) tendency of the emission [1]: blue-shift
peak emission (λmax) ([1]; aqueous solution (H2O)): 433 nm
Compound: COC(=O)c1c2c3ccccc3nc(-c3ccc[nH]3)c2n2ccccc12 [IQ 21, Methyl 6-(1H-pyrrol-2-yl)indolizino[3,2-c]quinoline-12-carboxylate]

Compound: COc1ccc(-c2ccn3c(c2)cc2c4ccccc4nc(-c4ccc(OC)cc4)c23)cc1 [IQ-B26, 6,10-bis(4-methoxyphenyl)indolizino[3,2-c]quinoline]
detection with yellow and red wavelength filters [2]: detected

Compound: C#Cc1c2c3ccccc3nc(-c3ccc(OC)cc3)c2n2ccccc12 [IQ 55, 12-ethynyl-6-(4-methoxyphenyl)indolizino[3,2-c]quinoline]
solvent-dependent (environment-sensitive) tendency of the emission [1]: hardly showed an environment-sensitive optical characteristic

Compound: COc1ccc(-c2nc3ccccc3c3cc4c5ccccc5ccn4c23)cc1 [IQ 77, 6-(4-methoxyphenyl)benzo[7,8]indolizino[3,2-c]quinoline]
fluorescence (intensity, in words) [1]: very high fluorescence intensity at a blue wavelength in EtOH and DMSO

Compound: COc1ccc(-c2nc3ccccc3c3cc4cc(C#N)ccn4c23)cc1 [IQ 67, 6-(4-methoxyphenyl)indolizino[3,2-c]quinoline-10-carbonitrile]
fluorescence (intensity, in words) [1]: further high fluorescence intensity in an aqueous solution

quantum yield (Φ) ([1]; DW, standard Rhodamine 6G): 0.085
quantum yield (Φ) ([1]; EtOH, standard Coumarin 153): 0.195
Compound: COc1ccc(-c2nc3ccccc3c3c(Br)c4ccccn4c23)cc1 [compound 49]

Maximum absorption wavelength λmax abs(nm) [1]: 400 nm
quantum yield (Φ) ([1]; DW, standard Rhodamine 6G): 0.005
quantum yield (Φ) ([1]; EtOH, standard Coumarin 153): 0.196
Fluorescence Emission Intensity [1]: 4.7
Peak emission wavelength λmax em(nm) [1]: 532 nm
Relative fluorescence Emission Intensitynorm [1]: 0.02
Compound: c1ccc(-c2nc3ccccc3c3cc4ccccn4c23)nc1 [compound 5]

quantum yield (Φ) ([1]; DW, standard Rhodamine 6G): 0.000
quantum yield (Φ) ([1]; EtOH, standard Coumarin 153): 0.000
Relative fluorescence Emission Intensitynorm [1]: 0.00
Compound: Cc1cccn2c1cc1c3ccccc3nc(-c3ccc([N+](=O)[O-])cc3)c12 [compound 13]

Compound: COc1ccc(-c2c3c(cc4ccccn43)c3ccccc3[n+]2CCCl)cc1 [IQ 6-S2-Cl, 5-(2-chloroethyl)-6-(4-methoxyphenyl)indolizino[3,2-c]quinolin-5-ium trifluoromethanesulfonate]
solvent-dependent (environment-sensitive) tendency of the emission [1]: hardly showed an environment-sensitive optical characteristic
λex(nm) ([1]; Table 6): 464 nm

fluorescence (intensity, in words) [1]: high fluorescence in DMSO
λex(nm) ([1]; Table 7): 444 nm
Compound: COc1ccc(-c2nc3ccccc3c3cc4cc(/C=C/C=O)ccn4c23)cc1 [IQ-B25, (E)-3-(6-(4-methoxyphenyl)indolizino[3,2-c]quinolin-10-yl)acrylaldehyde]

Maximum absorption wavelength λmax abs(nm) [1]: 384 nm
quantum yield (Φ) ([1]; DW, standard Rhodamine 6G): 0.000
quantum yield (Φ) ([1]; EtOH, standard Coumarin 153): 0.000
Relative fluorescence Emission Intensitynorm [1]: 0.00
Compound: CCOC(=O)c1c2c3ccccc3nc(-c3ccc([N+](=O)[O-])cc3)c2n2ccccc12 [compound 26]

quantum yield (Φ) ([1]; DW, standard Rhodamine 6G): 0.009
quantum yield (Φ) ([1]; EtOH, standard Coumarin 153): 0.031
Fluorescence Emission Intensity [1]: 13.4
Peak emission wavelength λmax em(nm) [1]: 505.5 nm
Relative fluorescence Emission Intensitynorm [1]: 0.06
Compound: Brc1ccc2cc3c4ccccc4nc(-c4ccco4)c3n2c1 [compound 25]

quantum yield (Φ) ([1]; DW, standard Rhodamine 6G): 0.120
quantum yield (Φ) ([1]; EtOH, standard Coumarin 153): 0.365
Fluorescence Emission Intensity [1]: 186.2
Peak emission wavelength λmax em(nm) [1]: 482 nm
Relative fluorescence Emission Intensitynorm [1]: 0.80
Compound: CCOC(=O)c1c2c3ccccc3nc(-c3cccc(OC)c3)c2n2ccccc12 [compound 29]

Compound: Nc1ccc(-c2nc3ccccc3c3cc4ccccn4c23)cc1 [IQ-B1, 4-(indolizino[3,2-c]quinolin-6-yl)aniline]
solvent-dependent (environment-sensitive) tendency of the emission [1]: high solvent-dependent (i.e., environment-sensitive) tendency

Compound: CCc1nc2ccccc2c2cc3c4ccccc4ccn3c12 [IQ 79, 6-ethylbenzo[7,8]indolizino[3,2-c]quinoline]
fluorescence (intensity, in words) [1]: very high fluorescence intensity at a blue wavelength in EtOH and DMSO

Compound: COc1ccc(-c2nc3ccccc3c3cc4cc(/C=C/n5ccnc5)ccn4c23)cc1 [IQ-B20, (E)-10-(2-(1H-imidazol-1-yl)vinyl)-6-(4-methoxyphenyl)indolizino[3,2-c]quinoline]
fluorescence (intensity, in words) [1]: high fluorescence in other solvents as well as an aqueous solution

quantum yield (Φ) ([1]; DW, standard Rhodamine 6G): 0.030
quantum yield (Φ) ([1]; EtOH, standard Coumarin 153): 0.063
Fluorescence Emission Intensity [1]: 75.1
Peak emission wavelength λmax em(nm) [1]: 513 nm
Relative fluorescence Emission Intensitynorm [1]: 0.32
Compound: COc1ccc(-c2nc3ccccc3c3cc4ccc(Br)cn4c23)cc1OC [compound 24]

λex(nm) ([1]; Table 6): 450 nm and 422 nm
Compound: COc1ccc(-c2nc3ccccc3c3cc4ccccn4c23)cc1CN1CCOCC1 [compound 56]

quantum yield (Φ) ([1]; DW, standard Rhodamine 6G): 0.082
quantum yield (Φ) ([1]; EtOH, standard Coumarin 153): 0.277
Compound: Cc1cccn2c1cc1c3ccccc3nc(-c3cccc4ccccc34)c12 [compound 33]

λex(nm) ([1]; Table 7): 422 nm
Compound: CN(/N=C/c1nc2ccccc2c2cc3ccccn3c12)c1ccccc1 [IQ-B16, (E)-6-((2-methyl-2-phenylhydrazineylidene)methyl)indolizino[3,2-c]quinoline]
